Results published in patent US20260271931A1, “HERBICIDAL MIXTURES” (Bayer Aktiengesellschaft, priority 2023, published 2026).
Like-named read-outs stand apart in the source and are kept apart here.

How the values were obtained:
Format in all cases: in vivo
[1] = system: Brachiaria platyfylla (BRAPP); test: Post-emergence action against weeds, greenhouse pot test, visual rating: Brachiaria platyfylla; conditions: post-emergence, 240 h, read-out: Herbicidal effect [%] on BRAPP 10 DAT
Protocol: (§1) When the observed efficacies already exceed the formal sum total of the values of the tests with individual applications, they also exceed the expected value according to Colby, which is calculated using the formula below and is likewise regarded as an indication of synergism (cf. S. R. Colby; in Weeds 15 (1967) pp. 20 to 22):
(§2) where: • A=efficacy of the active ingredient (A) in % at an application rate of a [g a.i./ha]; • B=efficacy of the active ingredient (B) in % at an application rate of b [g a.i./ha]; • E^C=expected value of the effect of the combination (A)+(B) in % at the combined application rate a+b [g a.i./ha].
(§3) The observed values (E^A) from the experiments, given suitable low dosages, show an effect of the combinations exceeding the expected values according to Colby (E^C) (Δ).
(§4) Seeds of mono- and dicotyledonous weeds were placed in sandy loam in pots, covered with soil and grown in a greenhouse under good growth conditions (temperature, air humidity, water supply). Two to three weeks after sowing, the test plants were treated at the two- to four-leaf stage with the compositions of the invention. The compositions of the invention, formulated as spray powders or as emulsion concentrates, were sprayed onto the green parts of the plant in various dosages with an application rate equivalent to […] of water. After the test plants had been kept in the greenhouse under optimum growth conditions for 3 weeks, the activity of the preparations was rated visually in comparison to untreated controls.
(§5) 100% efficacy means complete control of the particular weed tested.
(§6) 0% efficacy means zero control of the particular weed tested.
(§7) Expected values according to Colby are reported under E.
(§8) The exceedance of the expected value E is given as Δ (=synergistic effect).
(§9) The rating period is reported in days after application (DAT).

Eleusine indica (ELEIN) = test: Post-emergence action against weeds, greenhouse pot test, visual rating: Eleusine indica; conditions: for pest or weed control at 15 g/ha: 15 g a.i./ha; for pest or weed control at 150 g/ha: 150 g a.i./ha; for Herbicidal effect [%] on ELEIN 21 DAT: 3 g a.i./ha
Protocol: as §1, §2, §3, §4, §5, §6, §7, §8, §9

Kochia scoparia (KCHSC) = test: Post-emergence action against weeds, greenhouse pot test, visual rating: Kochia scoparia
Lolium rigidum (LOLRI) = test: Post-emergence action against weeds, greenhouse pot test, visual rating: Lolium rigidum
[2] = system: Sorghum halepense (SORHA); test: Post-emergence action against weeds, greenhouse pot test, visual rating: Sorghum halepense
Protocol: as §1, §2, §3, §4, §5, §6, §7, §8, §9

[3] = system: Pharbitis purpurea (PHBPU); test: Post-emergence action against weeds, greenhouse pot test, visual rating: Pharbitis purpurea; conditions: 21 DAT
Protocol: as §1, §2, §3, §4, §5, §6, §7, §8, §9

Avena fatua (AVEFA) = test: Post-emergence action against weeds, greenhouse pot test, visual rating: Avena fatua
Centaurea cyanus (CENCY) = test: Post-emergence action against weeds, greenhouse pot test, visual rating: Centaurea cyanus
Protocol: as §1, §2, §3, §4, §5, §6, §7, §8, §9

Bidens pilosa (BIDPI) = test: Post-emergence action against weeds, greenhouse pot test, visual rating: Bidens pilosa; conditions: 3 g a.i./ha
[4] = system: Echinochloa crus-galli (ECHCG); test: Post-emergence action against weeds, greenhouse pot test, visual rating: Echinochloa crus-galli; conditions: 3 g a.i./ha
[5] = Eleusine indica, post-emergence, 504 h, read-out: Herbicidal effect [%] on ELEIN 21 DAT
[6] = Eleusine indica, post-emergence, 240 h, read-out: Herbicidal effect [%] on ELEIN 10 DAT

With CCSC(C)CC1CC(=O)C(/C(CC)=N/OC/C=C/Cl)=C(O)C1 (centres unmarked) [Clethodim, clethodim] the pest or weed control at 8 g/ha [1] was 85%, the pest or weed control at 8 g/ha (Eleusine indica (ELEIN); [5]) was 30% and the pest or weed control at 8 g/ha (Kochia scoparia (KCHSC); Bassia scoparia, post-emergence, 504 h, read-out: Herbicidal effect [%] on KCHSC 21 DAT) was 0%. For the same compound, the “Herbicidal effect [%] on LOLRI 10 DAT” value (Lolium rigidum (LOLRI); 8 g a.i./ha) was 80% and the “Herbicidal effect [%] on SORHA 10 DAT” value ([2]; 8 g a.i./ha, 10 DAT) was 80%.

With COc1c(Cl)ccc(-c2nc(C(=O)O)c(Cl)c(N)c2F)c1F [Florpyrauxifen, florpyrauxifen] the “Herbicidal effect [%] on PHBPU 21 DAT” value ([3]; 1 g a.i./ha) was 10%.

For COC(=O)c1csc(C)c1S(=O)(=O)NC(=O)n1nc(OC)n(C)c1=O [Thiencarbazone-methyl], the “Herbicidal effect [%] on AVEFA 21 DAT” value (Avena fatua (AVEFA); 21 DAT, 0.33 g a.i./ha) was 88%, the “Herbicidal effect [%] on CENCY 21 DAT” value (Centaurea cyanus (CENCY); 0.33 g a.i./ha) was 40% and the “Herbicidal effect [%] on LOLRI 21 DAT” value (Lolium rigidum (LOLRI); 0.33 g a.i./ha, 21 DAT) was 88%. The “Herbicidal effect [%] on PHBPU 21 DAT” value ([3]; 0.33 g a.i./ha) was 40%.

In the case of Cn1nc(C(F)(F)F)c(CS(=O)(=O)C2=NOC(C)(C)C2)c1OC(F)F [Pyroxasulfone, pyroxasulfone], the pest or weed control at 15 g/ha ([1]; 15 g a.i./ha) was 20%, the pest or weed control at 15 g/ha (Eleusine indica (ELEIN); [6]) was 10% and the pest or weed control at 15 g/ha (Eleusine indica (ELEIN); [5]) was 60%. For the same compound, the pest or weed control at 15 g/ha (Kochia scoparia (KCHSC); Bassia scoparia, post-emergence, 504 h, 15 g a.i./ha, read-out: Herbicidal effect [%] on KCHSC 21 DAT) was 0%.

In the case of O=C(Nc1ccc(F)cc1F)c1cccnc1Oc1cccc(C(F)(F)F)c1 [Diflufenican, diflufenican], the pest or weed control at 120 g/ha (Avena fatua (AVEFA); Avena fatua, 240 h, 10 DAT, 120 g a.i./ha, read-out: Herbicidal effect [%] on AVEFA 10 DAT) was 10%, the pest or weed control at 120 g/ha (Eleusine indica (ELEIN); Eleusine indica, post-emergence, 504 h, 120 g a.i./ha, read-out: Herbicidal effect [%] on ELEIN 21 DAT) was 10% and the “Herbicidal effect [%] on SORHA 21 DAT” value ([2]; 120 g a.i./ha) was 0%.

For CCOCN(C(=O)CCl)c1c(C)cccc1CC [Acetochlor, acetochlor], the pest or weed control at 150 g/ha (Eleusine indica (ELEIN); [6]) was 80%, the pest or weed control at 150 g/ha (Eleusine indica (ELEIN); [5]) was 90% and the “Herbicidal effect [%] on LOLRI 10 DAT” value (Lolium rigidum (LOLRI); 150 g a.i./ha) was 40%. For the same compound, the pest or weed control at 150 g/ha (Lolium rigidum (LOLRI); Lolium rigidum, 504 h, 150 g a.i./ha, 21 DAT, read-out: Herbicidal effect [%] on LOLRI 21 DAT) was 0%.

With C[n+]1ccc(-c2cc[n+](C)cc2)cc1 [Paraquat, paraquat] the pest or weed control at 40 g/ha (Eleusine indica (ELEIN); [6]) was 40%, the pest or weed control at 40 g/ha (Eleusine indica (ELEIN); [5]) was 10% and the pest or weed control at 40 g/ha (Lolium rigidum (LOLRI); Lolium rigidum, 504 h, read-out: Herbicidal effect [%] on LOLRI 21 DAT) was 10%.

CP(=O)(O)CCC(N)C(=O)O (centres unmarked) [Glufosinate, glufosinate] showed a pest or weed control at 30 g/ha (Eleusine indica (ELEIN); [6]) of 10%.

Cc1ccc2c(c1)[C@H](Nc1nc(N)nc(C(C)F)n1)[C@@H](C)C2 (some centres unmarked) [Indaziflam, indaziflam] was tested, and the “Herbicidal effect [%] on AVEFA 10 DAT” value (Avena fatua (AVEFA); 10 DAT, 3 g a.i./ha) was 0%, the “Herbicidal effect [%] on BIDPI 21 DAT” value (Bidens pilosa (BIDPI)) was 30% and the “Herbicidal effect [%] on CENCY 10 DAT” value (Centaurea cyanus (CENCY); 3 g a.i./ha) was 20%. The “Herbicidal effect [%] on CENCY 21 DAT” value (Centaurea cyanus (CENCY); 3 g a.i./ha) was 10%, the “Herbicidal effect [%] on ECHCG 10 DAT” value [4] was 0% and the “Herbicidal effect [%] on ELEIN 21 DAT” value (Eleusine indica (ELEIN)) was 10%. For the same compound, the “Herbicidal effect [%] on KCHSC 10 DAT” value (Kochia scoparia (KCHSC); 3 g a.i./ha) was 10%, the “Herbicidal effect [%] on KCHSC 21 DAT” value (Kochia scoparia (KCHSC); 3 g a.i./ha) was 20% and the “Herbicidal effect [%] on LOLRI 21 DAT” value (Lolium rigidum (LOLRI); 3 g a.i./ha, 21 DAT) was 0%. For the same compound, the “Herbicidal effect [%] on SORHA 21 DAT” value ([2]; 3 g a.i./ha) was 10%.

For bicyclopyrone, the “Herbicidal effect [%] on BIDPI 21 DAT” value (Bidens pilosa (BIDPI)) was 10%, the “Herbicidal effect [%] on CENCY 10 DAT” value (Centaurea cyanus (CENCY); 3 g a.i./ha) was 50% and the “Herbicidal effect [%] on ELEIN 21 DAT” value (Eleusine indica (ELEIN)) was 30%.
